From ChEMBL document CHEMBL4321785, “Challenges and Opportunities for Therapeutics Targeting the Voltage-Gated Sodium Channel Isoform NaV1.7” (J Med Chem, 2019)
“And” between values parts separate entries of the source, which are not always exact repeats. Equal values may be shown once.

What was measured:
[1] = target: Sodium channel protein type 8 subunit alpha (Homo sapiens, UniProt Q9UQD0); assay: Inhibition of human Nav1.6 expressed in HEK293 cells by electrophysiology assay; format: cell-based
[2] = target: Sodium channel protein type 5 subunit alpha (Homo sapiens, UniProt Q14524); assay: Inhibition of human Nav1.5 expressed in HEK293 cells by electrophysiology assay; format: cell-based
Sodium channel protein type 5 subunit alpha, sequence (Q14524 whole entry): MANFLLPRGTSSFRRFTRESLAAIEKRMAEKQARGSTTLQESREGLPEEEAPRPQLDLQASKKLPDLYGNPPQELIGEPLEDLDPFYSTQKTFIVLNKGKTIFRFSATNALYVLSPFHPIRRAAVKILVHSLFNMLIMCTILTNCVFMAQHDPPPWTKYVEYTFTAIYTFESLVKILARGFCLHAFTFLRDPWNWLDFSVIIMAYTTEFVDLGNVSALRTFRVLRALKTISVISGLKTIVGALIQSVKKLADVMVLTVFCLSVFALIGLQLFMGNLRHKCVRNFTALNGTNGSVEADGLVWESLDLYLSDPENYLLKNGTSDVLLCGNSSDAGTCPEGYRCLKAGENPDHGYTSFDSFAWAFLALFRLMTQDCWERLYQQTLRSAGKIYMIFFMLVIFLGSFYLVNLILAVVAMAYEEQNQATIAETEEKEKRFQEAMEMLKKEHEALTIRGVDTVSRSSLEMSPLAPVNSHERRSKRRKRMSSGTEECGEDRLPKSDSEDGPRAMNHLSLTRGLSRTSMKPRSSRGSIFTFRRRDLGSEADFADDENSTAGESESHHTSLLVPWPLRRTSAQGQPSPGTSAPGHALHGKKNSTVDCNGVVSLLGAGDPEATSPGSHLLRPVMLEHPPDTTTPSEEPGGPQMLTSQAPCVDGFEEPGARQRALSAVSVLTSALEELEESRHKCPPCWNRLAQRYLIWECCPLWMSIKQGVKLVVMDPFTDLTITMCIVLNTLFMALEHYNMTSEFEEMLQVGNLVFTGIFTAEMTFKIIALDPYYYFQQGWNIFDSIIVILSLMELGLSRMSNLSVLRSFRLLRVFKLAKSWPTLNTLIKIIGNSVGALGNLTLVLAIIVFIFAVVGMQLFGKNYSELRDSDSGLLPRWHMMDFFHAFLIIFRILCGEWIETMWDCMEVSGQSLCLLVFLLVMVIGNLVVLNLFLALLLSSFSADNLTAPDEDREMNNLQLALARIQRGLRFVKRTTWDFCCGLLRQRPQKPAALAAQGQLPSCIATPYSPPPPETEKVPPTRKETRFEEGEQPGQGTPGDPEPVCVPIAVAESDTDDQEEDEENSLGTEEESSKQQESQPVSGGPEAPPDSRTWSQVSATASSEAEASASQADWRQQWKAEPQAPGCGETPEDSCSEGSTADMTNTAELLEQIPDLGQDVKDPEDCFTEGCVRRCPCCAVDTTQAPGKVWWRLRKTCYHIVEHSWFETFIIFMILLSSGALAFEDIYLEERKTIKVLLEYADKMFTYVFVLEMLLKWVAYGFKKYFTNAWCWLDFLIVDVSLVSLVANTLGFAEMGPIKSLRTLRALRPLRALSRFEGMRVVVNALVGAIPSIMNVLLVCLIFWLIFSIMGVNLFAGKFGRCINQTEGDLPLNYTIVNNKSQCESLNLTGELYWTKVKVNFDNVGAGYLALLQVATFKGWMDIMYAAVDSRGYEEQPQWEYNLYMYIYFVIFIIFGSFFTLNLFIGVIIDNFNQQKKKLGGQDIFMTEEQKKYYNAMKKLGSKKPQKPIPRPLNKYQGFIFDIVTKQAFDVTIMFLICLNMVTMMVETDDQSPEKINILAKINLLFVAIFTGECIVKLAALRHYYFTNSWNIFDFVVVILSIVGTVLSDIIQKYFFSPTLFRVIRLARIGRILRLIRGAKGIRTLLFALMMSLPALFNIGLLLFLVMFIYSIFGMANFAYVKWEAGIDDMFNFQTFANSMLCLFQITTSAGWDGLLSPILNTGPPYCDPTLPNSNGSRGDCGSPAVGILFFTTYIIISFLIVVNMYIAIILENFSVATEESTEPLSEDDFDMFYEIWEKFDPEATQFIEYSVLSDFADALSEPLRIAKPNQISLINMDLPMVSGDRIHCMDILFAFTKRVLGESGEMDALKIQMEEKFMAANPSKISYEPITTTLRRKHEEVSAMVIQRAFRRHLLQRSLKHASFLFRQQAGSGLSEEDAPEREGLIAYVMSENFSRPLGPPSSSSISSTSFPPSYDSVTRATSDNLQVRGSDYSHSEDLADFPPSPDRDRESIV

[3] = target: Sodium channel protein type 2 subunit alpha (Homo sapiens, UniProt Q99250); assay: Inhibition of human Nav1.2 expressed in HEK293 cells by electrophysiology assay; format: cell-based
Homo sapiens [4] = organism: Homo sapiens; assay: Selectivity index, ratio of IC50 for inhibition of human Nav1.6 expressed in HEK293 cells by electrophysiology assay to IC50 for inhibition of human Nav1.7 expressed in HEK293 cells by electrophysiology assay; format: cell-based
[5] = Ratio of unbound plasma concentration in mouse model of inherited erythromelalgia to IC50 for inhibition of human Nav1.7 expressed in HEK293 cells by electrophysiology assay; format: cell-based
Homo sapiens [6] = organism: Homo sapiens; assay: Selectivity index, ratio of IC50 for inhibition of human Nav1.1 expressed in HEK293 cells by electrophysiology assay to IC50 for inhibition of human Nav1.7 expressed in HEK293 cells by electrophysiology assay; format: cell-based
Homo sapiens [7] = organism: Homo sapiens; assay: Selectivity index, ratio of IC50 for inhibition of human Nav1.2 expressed in HEK293 cells by electrophysiology assay to IC50 for inhibition of human Nav1.7 expressed in HEK293 cells by electrophysiology assay; format: cell-based
[8] = Ratio of unbound plasma concentration in mouse model of formalin-induced pain to IC50 for inhibition of mouse Nav1.7 expressed in HEK293 cells by electrophysiology assay; format: cell-based
Homo sapiens [9] = organism: Homo sapiens; assay: Selectivity index, ratio of IC50 for inhibition of human Nav1.5 expressed in HEK293 cells by electrophysiology assay to IC50 for inhibition of human Nav1.7 expressed in HEK293 cells by electrophysiology assay; format: cell-based
[10] = target: Sodium channel protein type 4 subunit alpha (Homo sapiens, UniProt P35499); assay: Inhibition of human Nav1.4 expressed in HEK293 cells by electrophysiology assay; format: cell-based
[11] = target: Sodium channel protein type 9 subunit alpha (Rattus norvegicus, UniProt O08562); assay: Inhibition of rat Nav1.7 expressed in HEK293 cells by electrophysiology assay; format: cell-based
Sodium channel protein type 9 subunit alpha (Rattus norvegicus, UniProt O08562), sequence (O08562 whole entry): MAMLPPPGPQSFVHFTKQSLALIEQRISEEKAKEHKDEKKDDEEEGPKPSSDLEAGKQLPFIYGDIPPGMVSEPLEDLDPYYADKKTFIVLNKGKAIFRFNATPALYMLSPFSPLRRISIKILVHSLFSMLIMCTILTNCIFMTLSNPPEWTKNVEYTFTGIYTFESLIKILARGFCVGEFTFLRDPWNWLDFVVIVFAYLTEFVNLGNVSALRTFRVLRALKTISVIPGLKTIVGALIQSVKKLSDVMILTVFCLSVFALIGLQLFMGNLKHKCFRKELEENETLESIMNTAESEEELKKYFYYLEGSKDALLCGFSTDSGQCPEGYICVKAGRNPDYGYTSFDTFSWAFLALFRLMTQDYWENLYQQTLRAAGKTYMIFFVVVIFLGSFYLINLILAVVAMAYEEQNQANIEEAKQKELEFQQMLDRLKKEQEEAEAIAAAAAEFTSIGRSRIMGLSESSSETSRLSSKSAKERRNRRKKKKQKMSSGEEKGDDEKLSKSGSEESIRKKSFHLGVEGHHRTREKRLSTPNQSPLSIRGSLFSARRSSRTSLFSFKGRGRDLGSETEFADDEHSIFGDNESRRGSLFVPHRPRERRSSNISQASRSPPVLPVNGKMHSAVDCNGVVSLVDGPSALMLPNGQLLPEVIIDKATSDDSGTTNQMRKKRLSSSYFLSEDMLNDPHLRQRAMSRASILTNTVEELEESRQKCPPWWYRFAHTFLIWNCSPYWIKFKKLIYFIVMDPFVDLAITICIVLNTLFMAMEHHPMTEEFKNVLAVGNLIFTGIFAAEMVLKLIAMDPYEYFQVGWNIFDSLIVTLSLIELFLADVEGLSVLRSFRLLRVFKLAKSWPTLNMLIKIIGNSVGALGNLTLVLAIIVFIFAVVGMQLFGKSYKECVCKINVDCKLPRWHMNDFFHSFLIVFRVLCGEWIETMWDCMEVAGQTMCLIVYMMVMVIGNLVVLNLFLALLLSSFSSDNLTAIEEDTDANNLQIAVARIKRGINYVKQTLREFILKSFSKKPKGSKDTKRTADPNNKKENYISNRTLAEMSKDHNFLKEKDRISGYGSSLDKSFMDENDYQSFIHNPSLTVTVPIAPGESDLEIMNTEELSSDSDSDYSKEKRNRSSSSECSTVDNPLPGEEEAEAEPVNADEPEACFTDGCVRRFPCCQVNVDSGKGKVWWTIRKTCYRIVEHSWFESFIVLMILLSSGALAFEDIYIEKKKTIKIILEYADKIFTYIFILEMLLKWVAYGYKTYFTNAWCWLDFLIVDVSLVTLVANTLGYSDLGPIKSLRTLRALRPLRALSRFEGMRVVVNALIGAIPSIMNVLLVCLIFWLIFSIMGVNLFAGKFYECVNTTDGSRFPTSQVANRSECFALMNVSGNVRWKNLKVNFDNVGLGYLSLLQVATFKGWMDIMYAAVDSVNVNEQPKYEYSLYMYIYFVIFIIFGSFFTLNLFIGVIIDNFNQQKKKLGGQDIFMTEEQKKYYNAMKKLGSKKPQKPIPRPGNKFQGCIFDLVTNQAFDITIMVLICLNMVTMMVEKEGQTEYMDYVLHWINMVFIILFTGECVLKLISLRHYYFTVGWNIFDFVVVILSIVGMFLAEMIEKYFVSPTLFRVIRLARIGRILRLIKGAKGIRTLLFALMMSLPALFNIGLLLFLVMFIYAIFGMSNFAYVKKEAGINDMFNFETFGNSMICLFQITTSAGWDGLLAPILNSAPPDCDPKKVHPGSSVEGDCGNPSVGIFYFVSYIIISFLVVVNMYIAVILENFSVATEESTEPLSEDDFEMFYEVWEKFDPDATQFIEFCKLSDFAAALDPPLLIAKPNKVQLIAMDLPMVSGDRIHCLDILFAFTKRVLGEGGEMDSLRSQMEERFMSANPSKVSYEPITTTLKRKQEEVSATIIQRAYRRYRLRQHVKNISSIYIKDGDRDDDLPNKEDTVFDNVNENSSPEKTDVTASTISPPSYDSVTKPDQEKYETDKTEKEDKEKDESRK

Homo sapiens [12] = organism: Homo sapiens; assay: Selectivity index, ratio of IC50 for inhibition of human Nav1.8 expressed in HEK293 cells by electrophysiology assay to IC50 for inhibition of human Nav1.7 expressed in HEK293 cells by electrophysiology assay; format: cell-based
[13] = target: Sodium channel protein type 9 subunit alpha (Homo sapiens, UniProt Q15858); assay: Inhibition of human Nav1.7 expressed in HEK293 cells by electrophysiology assay; format: cell-based
[14] = target: Sodium channel protein type 10 subunit alpha (Homo sapiens, UniProt Q9Y5Y9); assay: Inhibition of human Nav1.8 expressed in HEK293 cells by electrophysiology assay; format: cell-based
[15] = Cmax in healthy human; format: ADME; settings: in vivo
[16] = Unbound fraction in mouse plasma; format: ADME, cell-free
Homo sapiens [17] = organism: Homo sapiens; assay: Selectivity index, ratio of IC50 for inhibition of human Nav1.3 expressed in HEK293 cells by electrophysiology assay to IC50 for inhibition of human Nav1.7 expressed in HEK293 cells by electrophysiology assay; format: cell-based
[18] = Ratio of unbound plasma concentration in mouse model of histamine-induced pain to IC50 for inhibition of mouse Nav1.7 expressed in HEK293 cells by electrophysiology assay; format: cell-based
Homo sapiens [19] = organism: Homo sapiens; assay: Selectivity index, ratio of IC50 for inhibition of human Nav1.4 expressed in HEK293 cells by electrophysiology assay to IC50 for inhibition of human Nav1.7 expressed in HEK293 cells by electrophysiology assay; format: cell-based
[20] = Ratio of unbound plasma concentration in mouse model of capsaicin-induced pain to IC50 for inhibition of mouse Nav1.7 expressed in HEK293 cells by electrophysiology assay; format: cell-based
[21] = target: Sodium channel protein type 1 subunit alpha (Homo sapiens, UniProt P35498); assay: Inhibition of human Nav1.1 expressed in HEK293 cells by electrophysiology assay; format: cell-based
[22] = target: Sodium channel protein type 3 subunit alpha (Homo sapiens, UniProt Q9NY46); assay: Inhibition of human Nav1.3 expressed in HEK293 cells by electrophysiology assay; format: cell-based
Rattus norvegicus [23] = organism: Rattus norvegicus
Rattus norvegicus [24] = organism: Rattus norvegicus; remark: listed apart in the source
Rattus norvegicus [25] = organism: Rattus norvegicus; remark: listed apart in the source

O=C(NS(=O)(=O)N1CCC1)c1cc(C2CC2)c(OCC23CC4CC(CC(C4)C2)C3)cc1F
IC50 [1]: 480 nM
IC50 [2]: 49 nM
IC50 [3]: 20 nM

CC1(COc2cc(F)c(C(=O)NS(=O)(=O)C3CC3)cc2C2CC2)CCC2(CC1)CC2
Ratio IC50 (Homo sapiens [4]): 63
Ratio [5]: 5.2
Ratio IC50 (Homo sapiens [6]): 10
Ratio IC50 (Homo sapiens [7]): 3.3
Ratio [8]: 22
Ratio IC50 (Homo sapiens [9]): 83

CSCC[C@@H]1NC(=O)[C@H](Cc2ccc(O)cc2)NC(=O)[C@H](CCCNC(=N)N)NC(=O)[C@@H](NC(=O)[C@@H](N)CC(=O)O)CSSC[C@@H]2NC(=O)[C@@H]3CSSC[C@@H](C(=O)N[C@@H](C)C(=O)N[C@@H](Cc4c[nH]c5ccccc45)C(=O)N[C@@H](CC(=O)O)C(=O)N[C@@H](Cc4ccccc4)C(=O)N[C@H](C(=O)N[C@@H](Cc4ccccc4)C(=O)N[C@H](C(=O)O)[C@@H](C)O)[C@@H](C)O)NC(=O)[C@H](Cc4ccc(O)cc4)NC(=O)[C@H](CCCCN)NC(=O)[C@H](CCSC)NC(=O)[C@H](CCCCN)NC(=O)[C@H](CCCNC(=N)N)NC(=O)[C@H](CCCCN)NC(=O)[C@H](CSSC[C@H](NC(=O)[C@H](CC(=O)O)NC(=O)CNC(=O)[C@H](Cc4ccccc4)NC1=O)C(=O)N[C@@H](CCC(=O)O)C(=O)N[C@@H](CCCCN)C(=O)N[C@@H](CC(=O)O)C(=O)N[C@@H](CCC(=O)O)C(=O)N[C@@H](CC(=O)O)C(=O)N3)NC(=O)CNC(=O)[C@H](CC(C)C)NC(=O)[C@H](Cc1cnc[nH]1)NC(=O)[C@H](CCCCN)NC2=O
IC50 [10]: 140 nM
IC50 [11]: 1.5 nM
IC50 [3]: 120 nM

O=C1N(Cc2ccc(C(F)(F)F)o2)c2ccccc2[C@]12COc1cc3c(cc12)OCO3 [FUNAPIDE]
Ratio IC50 (Homo sapiens [12]): 89
Ratio IC50 (Homo sapiens [4]): 3.1
IC50 [1]: 170 nM
IC50 [13]: 54 nM
Ratio IC50 (Homo sapiens [7]): 11
IC50 [2]: 84 nM
Ratio IC50 (Homo sapiens [9]): 1.5
IC50 [14]: 4800 nM
IC50 [3]: 600 nM

N#Cc1cc(S(=O)(=O)Nc2ncns2)ccc1Oc1ccc(-c2cccc(C(F)(F)F)c2)cc1-c1ccnc(CNCCC2CCNCC2)c1
IC50 [1]: 5.8 nM
IC50 [10]: 1500 nM
IC50 [2]: 2600 nM
IC50 [14]: 26000 nM
IC50 [3]: 3 nM

Nc1[nH]ncc1-c1cc(Cl)ccc1Oc1cc(F)c(S(=O)(=O)Nc2cscn2)cc1Cl [PF-05089771]
Cmax [15]: > 10000 ng/mL

COc1cc(-c2cc(F)cc(Cl)c2)c(F)cc1-n1c(=O)ccc2cc(S(=O)(=O)Nc3ccon3)ccc21
Fu [16]: 0.014
fraction unbound [16]: 0.0017
IC50 [1]: 1300 nM and > 10000 nM
Ratio IC50 (Homo sapiens [17]): > 4300
Ratio IC50 (Homo sapiens [6]): > 4300
IC50 [10]: > 14000 nM
IC50 ([10]; hek293): > 14000 nM
Ratio [18]: 5.3 and 4
IC50 [11]: 8600 nM and > 42000 nM
Ratio IC50 (Homo sapiens [19]): > 4300
IC50 [2]: > 14000 nM
IC50 ([2]; hek293): > 14000 nM
Ratio IC50 (Homo sapiens [9]): > 4300
Ratio [20]: 21
IC50 [21]: > 14000 nM
IC50 ([21]; hek293): > 14000 nM
IC50 [22]: > 14000 nM
IC50 ([22]; hek293): > 14000 nM

NC1=N[C@H](O)[C@H]2[C@H]3O[C@]4(O)O[C@@H]([C@@H](O)[C@@]2(N1)[C@@H]4O)[C@]3(O)CO
ED (Rattus norvegicus [23]): 1 to 3 µg/kg
ED (Rattus norvegicus [24]): 6 µg/kg
ED (Rattus norvegicus [25]): 1 µg/kg
